For the assay, the system named is Myc. Description: Myc inhibition assay: Myc expression per cell by anti-Myc immunofluorescence, high-content imaging. Type of assay: cell-based, human (patient-derived medulloblastoma xenograft cells). The note with it: medulloblastoma PDX cells, 4 h. In short, it runs like this:
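IC50 comes from high-content imaging of per-cell Myc immunostaining (DAPI-labelled nuclei) after 4 h compound exposure. Cells were freshly dissociated medulloblastoma PDX tumours, never passaged in vitro, grown in NSG mouse cerebellum, plated serum-free and recovered overnight before treatment.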

The mark [1] stands for this setting: Table 1, read-out: IC50 (Myc inhibition).
[2] abbreviates: Table 2, read-out: MYC Inhibition IC50.

Here are results for 37 compounds from patent publication US20260356817A1, “AMINOPYRIMIDINE AND AMINOTRIAZINE DERIVATIVES AS MYC PROTEIN MODULATORS” (Sanford Burnham Prebys Medical Discovery Institute, priority 2022, published 2026).

SMILES strings stand for the structures. Read-outs that look alike come from different tables or passages of the source. Where only a bound is given, the exact number is not on record here.

Broadly, the IC50 is the concentration at which inhibition is half-maximal. With `COCCNc1cccc(Nc2nccc(-c3ccc4[nH]cnc4c3)n2)c1` [Compound 47, N^1-(4-(1H-benzo[d]imidazol-5-yl)pyrimidin-2-yl)-N^3-(2-methoxyethyl)benzene-1,3-diamine], the half-inhibitory concentration (IC50) by setting is: under setting [1], 200 to 1000 nM; under setting [2], 200 to 1000 nM.

Turning to `O=C(Nc1cccc(Nc2nccc(-c3ccc4[nH]cnc4c3)n2)c1)c1ccccc1` [Compound 1, N-(3-((4-(1H-benzo[d]imidazol-5-yl)pyrimidin-2-yl)amino)phenyl)benzamide], the IC50 was under 200 nM under setting [1] and under 200 nM under setting [2].

`CCS(=O)(=O)c1cccc(Nc2nccc(-c3ccc4[nH]cnc4c3)n2)c1` [Compound 5, 4-(1H-benzo[d]imidazol-5-yl)-N-(3-(ethylsulfonyl)phenyl)pyrimidin-2-amine]: the half-inhibitory concentration (IC50) is under 200 nM under setting [1] and under 200 nM under setting [2].

For `CC(C)n1cc(Nc2nccc(-c3ccc4[nH]cnc4c3)n2)cn1` [Compound 21, 4-(1H-benzo[d]imidazol-5-yl)-N-(1-isopropyl-1H-pyrazol-4-yl)pyrimidin-2-amine], the concentration for half-maximal inhibition (IC50) is, setting by setting: under setting [1], 200 to 1000 nM; under setting [2], 200 to 1000 nM.

As for `FC(F)c1cccc(Nc2nccc(-c3ccc4nc[nH]c4c3)n2)c1` [Compound 280, 4-(1H-benzo[d]imidazol-5-yl)-N-(3-(difluoromethyl)phenyl)pyrimidin-2-amine], the IC50 reads like this: under setting [1], under 200 nM; under setting [2], under 200 nM.

Turning to `COc1cncc(-c2ccnc(Nc3ccccc3)n2)c1` [Compound 228, 4-(5-methoxypyridin-3-yl)-N-phenylpyrimidin-2-amine], the IC50 fell in the range of 1000 to 10000 nM under setting [1] and 1000 to 10000 nM under setting [2].

`Oc1cc(-c2ccnc(Nc3ccncc3)n2)ccn1` [Compound 190, 4-(2-(pyridin-4-ylamino)pyrimidin-4-yl)pyridin-2-ol]: the IC50 lay in the range of 1000 to 10000 nM under setting [1] and 1000 to 10000 nM under setting [2].

For the compound `c1cc(-c2ccc3[nH]cnc3c2)nc(Nc2ccc3sccc3c2)n1` [Compound 269, N-(benzo[b]thiophen-5-yl)-4-(1H-benzo[d]imidazol-5-yl)pyrimidin-2-amine], the IC50 by setting is: under setting [1], 200 to 1000 nM; under setting [2], 200 to 1000 nM.

Regarding `O=C(NC1CC1)c1cccc(Nc2nccc(-c3ccc4[nH]cnc4c3)n2)c1` [Compound 9, 3-((4-(1H-benzo[d]imidazol-5-yl)pyrimidin-2-yl)amino)-N-cyclopropylbenzamide], the IC50 lay within 200 to 1000 nM under setting [1] and 200 to 1000 nM under setting [2].

As to `c1cc(-c2ccc3[nH]cnc3c2)nc(Nc2ccc3cn[nH]c3c2)n1` [Compound 268, N-(4-(1H-benzo[d]imidazol-5-yl)pyrimidin-2-yl)-1H-indazol-6-amine], the half-inhibitory concentration (IC50) under setting [1] lay in the range of 200 to 1000 nM and the IC50 under setting [2] lay within 200 to 1000 nM.

Regarding `c1cc(-c2ccc3[nH]cnc3c2)nc(NC2CCCC2)n1` [Compound 88, 4-(1H-benzo[d]imidazol-5-yl)-N-cyclopentylpyrimidin-2-amine], the IC50 was 1000 to 10000 nM under setting [1] and 1000 to 10000 nM under setting [2].

Take `Cc1cccc(Nc2nccc(-c3cnc4nc[nH]c4c3)n2)c1` [Compound 136, 4-(1H-imidazo[4,5-b]pyridin-6-yl)-N-(m-tolyl)pyrimidin-2-amine]: the concentration for half-maximal inhibition (IC50) by setting is: under setting [1], under 200 nM; under setting [2], under 200 nM.

For the compound `CCC(=O)Nc1cccc(Nc2nccc(-c3ccc4[nH]cnc4c3)n2)c1` [Compound 15, N-(3-((4-(1H-benzo[d]imidazol-5-yl)pyrimidin-2-yl)amino)phenyl)propionamide], the IC50 by setting is: under setting [1], 200 to 1000 nM; under setting [2], 200 to 1000 nM.

Consider `O=C(Nc1cccc(Nc2nccc(-c3ccc4[nH]cnc4c3)n2)c1)c1ccco1` [Compound 254, N-(3-((4-(1H-benzo[d]imidazol-5-yl)pyrimidin-2-yl)amino)phenyl)furan-2-carboxamide], for which the IC50 reads like this: under setting [1], under 200 nM; under setting [2], under 200 nM.

In the case of `c1ccc(-n2cc(Nc3nccc(-c4ccc5[nH]cnc5c4)n3)cn2)nc1` [Compound 35, 4-(1H-benzo[d]imidazol-5-yl)-N-(1-(pyridin-2-yl)-1H-pyrazol-4-yl)pyrimidin-2-amine], the IC50 is, setting by setting: under setting [1], under 200 nM; under setting [2], under 200 nM.

Turning to `Fc1cccc(Nc2nccc(-c3cnc4nccn4c3)n2)c1` [Compound 273, N-(3-fluorophenyl)-4-(imidazo[1,2-a]pyrimidin-6-yl)pyrimidin-2-amine], the 50% inhibitory concentration (IC50) by setting is: under setting [1], 1000 to 10000 nM; under setting [2], 1000 to 10000 nM.

Consider `Cc1cc(Nc2nccc(-c3ccc4[nH]cnc4c3)n2)ccc1F` [Compound 48, 4-(1H-benzo[d]imidazol-5-yl)-N-(4-fluoro-3-methylphenyl)pyrimidin-2-amine], for which the IC50 by setting is: under setting [1], 200 to 1000 nM; under setting [2], 200 to 1000 nM.

Consider `Fc1cc2[nH]cnc2cc1-c1ccnc(Nc2cccc(C(F)(F)F)c2)n1` [Compound 126, 4-(6-fluoro-1H-benzo[d]imidazol-5-yl)-N-(3-(trifluoromethyl)phenyl)pyrimidin-2-amine], for which the IC50 under setting [1] fell in the range of 200 to 1000 nM and the IC50 under setting [2] was 200 to 1000 nM.

As to `Oc1cc(-c2ccnc(Nc3ccccc3)n2)ccn1` [Compound 251, 4-(2-(phenylamino)pyrimidin-4-yl)pyridin-2-ol], the half-inhibitory concentration (IC50) fell in the range of 1000 to 10000 nM under setting [1] and 1000 to 10000 nM under setting [2].

On to `Oc1ccc(-c2ccnc(Nc3cccc(F)c3)n2)cn1` [Compound 213, 5-(2-((3-fluorophenyl)amino)pyrimidin-4-yl)pyridin-2-ol], for which the IC50 lay within 1000 to 10000 nM under setting [1] and 1000 to 10000 nM under setting [2].

For `Fc1cccc(Nc2nccc(-c3cnc4[nH]ccc4c3)n2)c1` [Compound 169, N-(3-fluorophenyl)-4-(1H-pyrrolo[2,3-b]pyridin-5-yl)pyrimidin-2-amine], the 50% inhibitory concentration (IC50) is, setting by setting: under setting [1], 10000 to 100000 nM; under setting [2], 10000 to 100000 nM.

For `Oc1ccc(-c2ccnc(Nc3cccc(F)c3)n2)cc1` [Compound 194, 4-(2-((3-fluorophenyl)amino)pyrimidin-4-yl)phenol], the half-maximal inhibitory concentration (IC50) under setting [1] is 1000 to 10000 nM and the half-inhibitory concentration (IC50) under setting [2] lay in the range of 1000 to 10000 nM.

Turning to `COc1ccc(-c2ccnc(Nc3cccc(F)c3)n2)cn1` [Compound 214, N-(3-fluorophenyl)-4-(6-methoxypyridin-3-yl)pyrimidin-2-amine], the concentration for half-maximal inhibition (IC50) runs as follows: under setting [1], 10000 to 100000 nM; under setting [2], 10000 to 100000 nM.

Turning to `Oc1cc(-c2ccnc(Nc3ccccn3)n2)ccn1` [Compound 186, 4-(2-(pyridin-2-ylamino)pyrimidin-4-yl)pyridin-2-ol], the IC50 runs as follows: under setting [1], 10000 to 100000 nM; under setting [2], 10000 to 100000 nM.

Take `CN1CCN(c2cccc(Nc3nccc(-c4ccc5[nH]cnc5c4)n3)c2)CC1` [Compound 71, 4-(1H-benzo[d]imidazol-5-yl)-N-(3-(4-methylpiperazin-1-yl)phenyl)pyrimidin-2-amine]: the IC50 runs as follows: under setting [1], 200 to 1000 nM; under setting [2], 200 to 1000 nM.

For `O=S(=O)(Nc1ccc(F)cc1)c1cccc(Nc2nccc(-c3ccc4[nH]cnc4c3)n2)c1` [Compound 36, 3-((4-(1H-benzo[d]imidazol-5-yl)pyrimidin-2-yl)amino)-N-(4-fluorophenyl)benzenesulfonamide], the IC50 reads like this: under setting [1], 200 to 1000 nM; under setting [2], 200 to 1000 nM.

On to `Oc1ncc(-c2ccnc(Nc3cccc(F)c3)n2)s1` [Compound 181, 5-(2-((3-fluorophenyl)amino)pyrimidin-4-yl)thiazol-2-ol], for which the half-inhibitory concentration (IC50) runs as follows: under setting [1], 200 to 1000 nM; under setting [2], 200 to 1000 nM.

`Oc1cccc(Nc2nccc(-c3ccc4[nH]cnc4c3)n2)n1` [Compound 22, 6-((4-(1H-benzo[d]imidazol-5-yl)pyrimidin-2-yl)amino)pyridin-2-ol]: the IC50 lay in the range of 10000 to 100000 nM under setting [1] and 10000 to 100000 nM under setting [2].

On to `C#Cc1cccc(Nc2nccc(-c3ccc4[nH]cnc4c3)n2)c1` [Compound 93, 4-(1H-benzo[d]imidazol-5-yl)-N-(3-ethynylphenyl)pyrimidin-2-amine], for which the IC50 by setting is: under setting [1], 200 to 1000 nM; under setting [2], 200 to 1000 nM.

As to `CC(C)(C)c1cccc(Nc2nccc(-c3ccnc(O)c3)n2)c1` [Compound 149, 4-(2-((3-(tert-butyl)phenyl)amino)pyrimidin-4-yl)pyridin-2-ol], the IC50 lay in the range of 200 to 1000 nM under setting [1] and 200 to 1000 nM under setting [2].

Regarding `Oc1cc(-c2ncnc(Nc3ccccc3)n2)ccn1` [Compound 233, 4-(4-(phenylamino)-1,3,5-triazin-2-yl)pyridin-2-ol], the concentration for half-maximal inhibition (IC50) fell in the range of 1000 to 10000 nM under setting [1] and 1000 to 10000 nM under setting [2].

In the case of `c1ccc(-n2cc(Nc3nccc(-c4ccc5[nH]cnc5c4)n3)cn2)cc1` [Compound 39, 4-(1H-benzo[d]imidazol-5-yl)-N-(1-phenyl-1H-pyrazol-4-yl)pyrimidin-2-amine], the 50% inhibitory concentration (IC50) was under 200 nM under setting [1] and under 200 nM under setting [2].

Regarding `Fc1cccc(Nc2nccc(-c3ccc4[nH]ccc4c3)n2)c1` [Compound 153, N-(3-fluorophenyl)-4-(1H-indol-5-yl)pyrimidin-2-amine], the concentration for half-maximal inhibition (IC50) by setting is: under setting [1], 1000 to 10000 nM; under setting [2], 1000 to 10000 nM.

`O=S(=O)(c1cccc(Nc2nccc(-c3ccc4[nH]cnc4c3)n2)c1)C(F)(F)F` [Compound 260, 4-(1H-benzo[d]imidazol-5-yl)-N-(3-((trifluoromethyl)sulfonyl)phenyl)pyrimidin-2-amine]: the IC50 was under 200 nM under setting [1] and under 200 nM under setting [2].

Turning to `COc1ccnc(-c2ccnc(Nc3cccc(F)c3)n2)c1` [Compound 193, N-(3-fluorophenyl)-4-(4-methoxypyridin-2-yl)pyrimidin-2-amine], the IC50 reads like this: under setting [1], 10000 to 100000 nM; under setting [2], 10000 to 100000 nM.

Regarding `CC(C)C(=O)Nc1cccc(Nc2nccc(-c3ccc4[nH]cnc4c3)n2)c1` [Compound 257, N-(3-((4-(1H-benzo[d]imidazol-5-yl)pyrimidin-2-yl)amino)phenyl)isobutyramide], the IC50 by setting is: under setting [1], 200 to 1000 nM; under setting [2], 200 to 1000 nM.

For `COc1cncc(-c2ccnc(N(C)c3ccccc3)n2)c1` [Compound 224, 4-(5-methoxypyridin-3-yl)-N-methyl-N-phenylpyrimidin-2-amine], the half-inhibitory concentration (IC50) reads like this: under setting [1], 10000 to 100000 nM; under setting [2], 10000 to 100000 nM.
